Key:
[1] = system: stress-induced fecal output; assay: Psychological stress-induced (water avoidance) IBS model, SC administration; format: in vivo; details: for Stool Output: 6-h collection
Excerpt: (§1) For drug preparation and administration, the compounds were put into solution with sterile normal saline and sonicated briefly, if necessary. The drugs were made up at concentrations such that the rats received the drugs PO or SC at the rate of 1 cc per kilogram. Mice received the CHX(3,4,3)-trans IP at 1 cc per 100 grams. The solutions were made fresh the day of the study. Control animals received an equivalent amount of saline PO or SC.
Animal care and experimental procedures were approved by the Institutional Animal Care and Use Committee. Male Sprague-Dawley rats (250-350 g, Harlan Sprague-Dawley, Indianapolis, Ind.) were housed in polycarbonate cages in a temperature- and humidity-controlled room with a 12-hour light/dark cycle. The experiments were performed at the same time of the day to decrease diurnal variability. A typical experiment involved 20 rats: 5 saline-treated controls and 5 pretreated with polyamine analogues at each of three doses as either a SC injection or a PO gavage. The rats in the SC studies and in one set of experiments involving PO administration were allowed ad libitum access to a standard rodent diet and tap water until the morning of the experiment. Stress was initiated 30 minutes post drug as described below. In another set of experiments involving PO administration, the animals were fasted overnight but were allowed free access to water. […] In a final experiment, non-stressed control rats were injected with saline SC and housed in individual polycarbonate cages. The fecal output (number of pellets) of the stressed and unstressed animals was recorded at 30-min intervals for a 6-h period, during which they received no food or water.
(§2) To initiate the stress, water was added to each cage to a depth of at least 4.5 cm, i.e., within 0.5 cm of the top of the Pyrex dish. To avoid contact with water, the rats stand on the glass dish for the 6 h of the study. Stool output was expressed as the total number of fecal pellets excreted over the 6-h collection period. Percent reduction was calculated by dividing the mean value from the treated animals (T) by the mean value from the control animals (C), subtracting the resulting quotient from 1.0, and multiplying by 100 [i.e., (1.0−T/C)×100].
(§3) A one-tailed t-test assuming unequal variance was performed on the stool output data of the treated vs control (0 mg/kg) animals for each compound. A value of P<0.05 was considered significant.
The psychological stress-induced IBS model involves subjecting the rats to an aversive stimulus (water) and observing the increase in fecal output over a period of time. […] Control rats received an equivalent amount of saline SC.

[2] = system: stress-induced fecal output; assay: Psychological stress-induced (water avoidance) IBS model, PO administration by gavage; format: in vivo, rat; details: for oral activity against stress-induced fecal output (in words): PO gavage, non-fasted rats, 11.6-115.6 μmol/kg; for Stool Output: 6-hr collection; for % Reduction: vs stressed controls, 6 hr
Excerpt: as §1
Animal care and experimental procedures were approved by the Institutional Animal Care and Use Committee. Male Sprague-Dawley rats (250-350 g, Harlan Sprague-Dawley, Indianapolis, Ind.) were housed in polycarbonate cages in a temperature- and humidity-controlled room with a 12-hour light/dark cycle. The experiments were performed at the same time of the day to decrease diurnal variability. A typical experiment involved 20 rats: 5 saline-treated controls and 5 pretreated with polyamine analogues at each of three doses as either a SC injection or a PO gavage. The rats in the SC studies and in one set of experiments involving PO administration were allowed ad libitum access to a standard rodent diet and tap water until the morning of the experiment. Stress was initiated 30 minutes post drug as described below. In another set of experiments involving PO administration, the animals were fasted overnight but were allowed free access to water. The animals were then stressed from ½ h to 2 h post-drug (data not shown). In a final experiment, non-stressed control rats were injected with saline SC and housed in individual polycarbonate cages. The fecal output (number of pellets) of the stressed and unstressed animals was recorded at 30-min intervals for a 6-h period, during which they received no food or water.
as §2, with “Once the drug had been administered, the animals were housed individually in polycarbonate cages containing a clear 70×50 mm Pyrex crystallization dish (Fisher, Pittsburgh, Pa.) inverted in the center and held in place with vacuum grease. To initiate” for “To initiate”
as §3
Because an orally active compound would be desirable for the treatment of IBS, selected analogues utilizing oral administration in the same model were assessed. In the initial studies animals were utilized that had been fasted overnight. Rodents were then given the drug of interest PO by gavage and stressed ½ h, 1 h, or 2 h post-drug. Unfortunately, because of the low baseline stool output in fasted control rats, the reductions in fecal output observed upon drug administration cannot be reported with any confidence (data not shown). Thereafter, only non-fasted animals were employed and were given the agents by gavage at doses of 11.6, 23.2, 57.8, or 115.6:mol/kg 30 minutes before initiating the stress. […] At doses of 11.6 and 23.2:mol/kg, CHX(3,4,3)-trans reduced stooling by about 80% (P=0.001 and <0.001, respectively). DEHSPM was effective at a dose of […]:mol/kg (40% diminution of fecal output; P<0.01), and DE(5,4,5) was active at doses of 23.2 and 57.8:mol/kg (55 and 73% reductions in fecal output, respectively; P<0.001 for both doses).

[3] = system: castor oil-induced diarrhea; details: doses equivalent to a 5 mg/kg dose of DEHSPM; cited from earlier work
[4] = 2.3 μmol/kg SC, stress 30 min post drug
[5] = Rattus norvegicus, 2.3 μmol/kg SC, vs stressed controls, 6 h, read-out: % Reduction
[6] = Rattus norvegicus, 11.6 μmol/kg SC, vs stressed controls, 6 h, read-out: % Reduction
[7] = Rattus norvegicus, 23.2 μmol/kg SC, vs stressed controls, 6 h, read-out: % Reduction
[8] = Rattus norvegicus, 57.8 μmol/kg SC, vs stressed controls, 6 h, read-out: % Reduction

Compound | Stool Output [1, 4] | Stool Output ([1]; 11.6 μmol/kg SC) | Stool Output ([1]; 57.8 μmol/kg SC) | Stool Output ([1]; 23.2 μmol/kg SC) | inhibition in vivo at 11.6 µmol/kg [1, 6] [%] | inhibition in vivo at 57.8 µmol/kg [1, 8] [%] | further results
CC(C)NCCCNCCCNCCCNC(C)C [Compound 2] | 17.6 ± 5.5 number of fecal pellets | 13.6 ± 3.2 number of fecal pellets | 7.4 ± 3.6 number of fecal pellets | – | – | – | activity at diminishing stress-induced fecal output (in words) ([1]; SC administration to stressed rats): ineffective
CCCNCCCNCCCCNCCCNCCC [Compound 4] | 11.4 ± 7.2 number of fecal pellets | 11.5 ± 8.7 number of fecal pellets | 0.2 ± 0.4 number of fecal pellets | 5.7 ± 4.1 number of fecal pellets | 48 | 99 | inhibition in vivo at 2.3 µmol/kg [1, 5]: 49%; inhibition in vivo at 23.2 µmol/kg [1, 7]: 74%
CC(C)NCCCNCCCCNCCCNC(C)C [Compound 6, N^1,N^12 diisopropylspermine] | – | 1.6 ± 1.8 number of fecal pellets | – | – | 90 | – | Stool Output ([1]; 5.8 μmol/kg SC): 4.6 ± 2.3 number of fecal pellets; inhibition in vivo at 5.8 µmol/kg ([1]; Rattus norvegicus, 5.8 μmol/kg SC, vs stressed controls, 6 h, read-out: % Reduction): 70%; oral activity against stress-induced fecal output (in words) [2]: only CHX(3,4,3)-trans, DEHSPM, and DE(5,4,5) showed any activity at all
CC(C)CNCCCNCCCCNCCCNCC(C)C [Compound 7] | 15.9 ± 5.7 number of fecal pellets | 12.2 ± 2.7 number of fecal pellets | – | 6.6 ± 3.1 number of fecal pellets | 34 | – | toxic effects observed in stressed rats ([1]; 23.2 μmol/kg SC): ^gToxic effects were evident, including huddling in the corner of the cage.; inhibition in vivo at 23.2 µmol/kg [1, 7]: 64%; neurotoxicity in rats at subtherapeutic doses [3]: Signs of neurotoxicity
CC(C)CNCCCNCCCCNCCCN [Compound 8] | 14.8 ± 3.8 number of fecal pellets | 11.2 ± 2.2 number of fecal pellets | – | 10.6 ± 2.9 number of fecal pellets | 47 | – | toxic effects observed in stressed rats ([1]; 23.2 μmol/kg SC): ^gToxic effects were evident, including huddling in the corner of the cage.; inhibition in vivo at 2.3 µmol/kg [1, 5]: 30%; inhibition in vivo at 23.2 µmol/kg [1, 7]: 50%
CC(C)CCNCCCNCCCCNCCCNCCC(C)C [Compound 9] | 18.2 ± 2.8 number of fecal pellets | 14.6 ± 4.5 number of fecal pellets | 0 ± 0 number of fecal pellets | – | – | 100 | toxic effects observed in stressed rats ([1]; 57.8 μmol/kg SC): ^hDue to severe CNS toxicity, 3 of the 5 rats were removed after 4-4.5 h; neither of the remaining 2 rats had any stool output for the remainder of the study.; toxic effects observed in stressed rats ([1]; 57.8 μmol/kg SC, listed as DIPESPM): severe neurotoxicity; neurotoxicity in rats at subtherapeutic doses [3]: Signs of neurotoxicity
c1ccc(CNCCCNCCCCNCCCNCc2ccccc2)cc1 [Compound 10] | 12.6 ± 4.8 number of fecal pellets | 11.6 ± 2.9 number of fecal pellets | 8.4 ± 1.5 number of fecal pellets | – | – | 55 | –
FC(F)(F)c1ccccc1CCNCCCNCCCCNCCCNCCc1ccccc1C(F)(F)F [Compound 11] | 12.4 ± 2.1 number of fecal pellets | 13.6 ± 5.1 number of fecal pellets | – | 11.4 ± 2.1 number of fecal pellets | – | – | –
CCNCCCCCNCCCCNCCCCCNCC [Compound 14, N,N′-bis[5-(ethylamino)pentyl]-1,4-butanediamine] | 13.2 ± 6.3 number of fecal pellets | 2.2 ± 3.3 number of fecal pellets | 0 ± 0 number of fecal pellets | – | 88 | 100 | Stool Output ([2]; 11.6 μmol/kg PO): 15.2 ± 8.5 number of fecal pellets; Stool Output ([2]; 23.2 μmol/kg PO): 8.6 ± 4.9 number of fecal pellets; % Reduction ([2]; 23.2 μmol/kg PO): 55%; Stool Output ([2]; 57.8 μmol/kg PO): 5.1 ± 3.1 number of fecal pellets; % Reduction ([2]; 57.8 μmol/kg PO): 73%
C(CCNCCC1CCNCC1)CNCCC1CCNCC1 [Compound 15, N,N′-bis[2-(4-piperidinyl)ethyl]-1,4-diaminobutane] | – | – | 2.0 ± 2.0 number of fecal pellets | – | – | 82 | Stool Output ([1]; 2.32 μmol/kg SC): 8.8 ± 1.6 number of fecal pellets; Stool Output ([1]; 11.57 μmol/kg SC): 8.2 ± 3.1 number of fecal pellets; oral activity against stress-induced fecal output (in words) [2]: only CHX(3,4,3)-trans, DEHSPM, and DE(5,4,5) showed any activity at all
CCNCCCCCCNCCCNCCCNCC [Compound 16] | – | – | 0.4 ± 0.9 number of fecal pellets | – | – | 97 | Stool Output ([1]; 2.31 μmol/kg SC): 10.4 ± 5.2 number of fecal pellets; Stool Output ([1]; 11.56 μmol/kg SC): 9.4 ± 4.1 number of fecal pellets; toxic effects observed in stressed rats ([1]; 57.8 μmol/kg SC): ^iThe rats were quite lethargic, as though sedated, after drug administration.
CC(C)NCCCCCCNCCCNCCCNC(C)C [Compound 17] | – | – | 0 ± 0 number of fecal pellets | – | – | 100 | toxic effects observed in stressed rats ([1]; 2.32 μmol/kg SC): ^iThe rats were quite lethargic, as though sedated, after drug administration.; Stool Output ([1]; 2.32 μmol/kg SC): 1.4 ± 1.9 number of fecal pellets; toxic effects observed in stressed rats ([1]; 11.56 μmol/kg SC): ^iThe rats were quite lethargic, as though sedated, after drug administration.; Stool Output ([1]; 11.56 μmol/kg SC): 0 ± 0 number of fecal pellets; toxic effects observed in stressed rats ([1]; 57.8 μmol/kg SC): ^iThe rats were quite lethargic, as though sedated, after drug administration.; inhibition in vivo at 2.32 µmol/kg ([1]; Rattus norvegicus, 2.32 μmol/kg SC, vs stressed controls, 6 h, read-out: % Reduction): 84%; inhibition in vivo at 11.56 µmol/kg ([1]; Rattus norvegicus, 11.56 μmol/kg SC, vs stressed controls, 6 h, read-out: % Reduction): 100%

From patent publication US6818656B2, “Method and composition for treatment of irritable bowel disease” (University of Florida, priority 2001, dated 2004)
